Tested on: ataxia symptoms in subjects with spinocerebellar ataxia (SCA)
Assay: Phase IIb/III randomized, double-blind, placebo-controlled trial of BHV-4157 in SCA (BHV4157-201), 8-week randomization phase: SARA
Type: in vivo, human
Set-up: key to Total SARA change / Total SARA, Δ Btw Groups / Axial SARA [#1-4] change / Appendicular SARA [4-8] change / Total SARA change (LSmeans) / Gait [#1] change (LSmeans) / Axial Items [#1-4] change (LSmeans) / Appendicular [#5-8] change (LSmeans) / Change in Total SARA Score / Axial Items [1-4] change / Appendicular Items [5-8] change / ΔSARA (between groups): SARA points; total scale 0 (no ataxia) to 40 (severe)
Settings: for Total SARA, Δ Btw Groups / ΔSARA (between groups): BHV-4157 vs placebo; for Total SARA, week 8 StdChg / Total SARA, week 8 Δ Mean: all subjects
Description: One measure for assessment of the methods of the present invention is by using the Scale for the Assessment and Rating of Ataxia (“SARA”).
The SARA was developed as a clinician-administered instrument to measure severity of symptoms in patients with SCA. While there are multiple scales available, the SARA has been tested in many patients with SCA.
The SARA scores range from 0 (no ataxia) to 40 (severe). The SARA takes approximately 15 minutes to administer. Assessed items include: • Gait (rated 0 to 8) • Stance (0 to 6) • Sitting (0 to 4) • Speech disturbance (0 to 6) • Finger chase (0 to 4) • Nose-finger test (0 to 4) • Fast alternating hand movements (0 to 4) • Heel-shin slide (0 to 4)
Once each of the 8 categories has been assessed, the total score is calculated to determine the severity of ataxia. For motor activities of the four extremities (items 5-8), assessments are performed bilaterally and the mean values are used to obtain the total score.
The purpose of this study is to compare the efficacy of BHV-4157 versus placebo on ataxia symptoms in subjects with spinocerebellar ataxia (SCA).
Study Type: Interventional Study Design: Allocation: Randomized • Intervention Model: Parallel Assignment • Masking: Quadruple (Participant, Care Provider, Investigator, Outcomes Assessor) • Primary Purpose: Treatment • Official Title: A Phase IIb/III, Randomized, Double-blind, Placebo-controlled Trial of BHV-4157 in Adult Subjects With Spinocerebellar Ataxia Primary Outcome Measures: • To measure the change in total score on the Scale for Assessment and Rating of Ataxia (SARA) [Time Frame: The change in total score from baseline to week 8.] Secondary Outcome Measures: • To assess the safety and tolerability of BHV-4157 in subjects with SCA by measuring the frequency and severity of adverse events and discontinuations of adverse events. [Time Frame: Baseline to week 8.] Measured by the frequency and severity of adverse events and discontinuations of adverse events. • To compare efficacy of BHV-4157 with placebo on patient impression of benefit via use of the PGI-C [Time Frame: Baseline to Week 8] Change in PGI-C score
The study is a Phase IIb/III, multicenter, randomized, double-blind, 2-arm placebo-controlled parallel-group study designed to assess safety, tolerability, and efficacy signals in a population of patients with Spinocerebellar Ataxia (SCA). Subjects will be randomized to receive placebo (QD) or BHV-4157 (140 mg QD), stratified by diagnosis (genotype) and baseline severity (Gait Item of the SARA of ≤4 and >4). Subjects with SCA3 genotype will be limited to comprise up to approximately 10% of the total population so that this most common type of SCA is not over-represented.
Dosing will continue for 8 weeks. Subjects will return to the clinic two weeks after discontinuing study medication for a follow-up safety visit. In addition, subjects completing the Randomization Phase will be offered 48 weeks of open-label treatment as long as the PI believes open-label treatment offers an acceptable risk-benefit profile. Subjects who agree to enter the Extension Phase will not be required to wash-out of drug or complete the follow-up safety visit, but instead should continue dosing as specified in the extension phase. Subjects entering the Extension Phase would have their first Extension Visit four weeks after the Week 8 Randomization Phase visit. If there is a delay of two weeks or more in dosing between the Randomization Phase and the Extension Phase, subjects will be required to complete an Extension Baseline Visit. Thereafter, subjects will undergo visits every fourth week through Week 12 of this phase. Then subjects will undergo visits every 12 weeks up to Week 48 of this phase.

[1] = Females Subjects in Experienced Site Group, n = 17
[2] = Females Subjects in Stable Subgroup, n = 18
[3] = NOT-STABLE subjects, n = 28, week 8
[4] = STABLE subjects, n = 34, week 8
[5] = experienced sites/raters population
[6] = experienced sites/raters population, n = 37, week 8

With `CN(CC(=O)Nc1nc2ccc(OC(F)(F)F)cc2s1)C(=O)CNC(=O)CN` [BHV-4157, troriluzole] the “Responder Analysis, ≥3 points in All Subjects (n = 67)” value (Females) was 32%, the “Responders, ≥1 point” value [1] was 71% and the “Responders, ≥3 points” value [1] was 41%. The “Responders, ≥1 point” value [2] was 67%, the “Responders, ≥3 points” value [2] was 39% and the “Change in Total SARA Score” value (Females, All Subjects, n = 31, week 8) was −1.08. The “Change in Total SARA Score” value (Females, Experience of Sites, n = 20) was −1.15, the “Change in Total SARA Score” value (Females, STABLE Subgroup, n = 18) was −1.33 and the “Responder Analysis, ≥3 points in Stable Subjects (n = 38)” value (Females, printed on line Experience of Sites) was 35%. For the same molecule, the “Responder Analysis, ≥3 points at Experienced sites (n = 33)” value (Females, printed on line STABLE Subgroup) was 39%, the “Appendicular SARA [4-8] change” value [3] was −0.15 and the “Axial SARA [#1-4] change” value [3] was −0.46. The “Total SARA change” value (STABLE subjects (screening-to-baseline SARA within 1 point), n = 34, 140 mg QD, baseline to week 8) was −0.90, the “Total SARA, Δ Btw Groups” value (STABLE subjects, week 8) was −0.39 and the “Appendicular SARA [4-8] change” value [4] was −0.36. The “Axial SARA [#1-4] change” value [4] was −0.27, the “Responders, Response Definition ≥3 points (Total SARA)” value (Table 1, printed on line Total SARA STABLE, week 8) was 24% and the “Responders, Response Definition ≥ 1 point (Total SARA)” value (Table 1, printed on line Total SARA UNSTABLE, week 8) was 59%. For the same molecule, the “Total SARA change” value (UNSTABLE / NOT-STABLE subjects, n = 28, 140 mg QD, week 8) was −0.87, the “Total SARA, Δ Btw Groups” value (UNSTABLE subjects, week 8) was 0.62 and the “Total SARA, week 8 StdChg” value (n = 63, May-18) was 0.459. The “Total SARA, week 8 Δ Mean” value (n = 63, May-18 analysis, listed as BHV) was −0.810, the “Total SARA, week 8 Δ Mean” value (n = 63, May-18 analysis, listed as BHV5157) was −0.81 and the “Total SARA, week 8 StdChg” value (n = 63, Sep-17 analysis) was 0.459. For the same molecule, the “Total SARA, week 8 Δ Mean” value (n = 63, Sep-17 analysis) was −0.810, the “Responders, Response Definition ≥1 point” value [5] was 51.4% and the “Responders, Response Definition ≥3 points” value [5] was 21.6%. For the same molecule, the “Appendicular [#5-8] change (LSmeans)” value [6] was −0.52, the “Axial Items [#1-4] change (LSmeans)” value [6] was −0.47 and the “Gait [#1] change (LSmeans)” value [6] was −0.14. For the same molecule, the “Total SARA change (LSmeans)” value [6] was −1.37, the “Responder Analysis, ≥3 points in All Subjects (n = 65)” value (lighter median) was 33% and the “Change in Total SARA Score” value (lighter median (≤76.4 kg), all lighter subjects, n = 27, week 8) was −1.38. For the same molecule, the “ΔSARA (between groups)” value (lighter median, EXP Sites) was −1.03, the “Change in Total SARA Score” value (lighter median, EXP Sites, n = 18) was −1.64 and the “ΔSARA (between groups)” value (lighter median, Stable Subgroup) was −0.83. The “Change in Total SARA Score” value (lighter median, Stable Subgroup, n = 19) was −1.18, the “Appendicular Items [5-8] change” value (lighter median, n = 27) was −0.69 and the “Axial Items [1-4] change” value (lighter median, n = 27) was −0.85. For the same molecule, the “Responder Analysis, ≥3 points in Stable Subjects (n = 36)” value (lighter median, printed on line EXP Sites) was 39% and the “Responder Analysis, ≥3 points at Experienced sites (n = 36)” value (lighter median, printed on line Stable Subgroup) was 26%.

From US12102618B2, “Use of riluzole prodrugs to treat ataxias” (Biohaven Therapeutics Ltd., priority 2017, dated 2024)
